Read-outs that look alike come from different tables or passages of the source.
How the values were obtained:
[1] = logP determination by reversed-phase HPLC (EEC Directive 79/831 Annex V.A8); assay type: physicochemical
From the text: (a) Mobile phases for the determination of the acidic range: 0.1% aqueous phosphoric acid, acetonitrile; linear gradient from 10% acetonitrile to 90% acteonitrile—the corresponding measurement results in Table 1 are marked^a). […]

[2] = system: cotton aphid (Aphis gossypii); assay: Aphis gossypii test (cotton leaves, dip); assay type: in vivo; conditions: 500 ppm, cotton leaves dipped
Description: (§1) • Solvent: 7 parts by weight of dimethylformamide • Emulsifier: 2 parts by weight of alkylaryl polyglycol ether
(§2) To produce a suitable preparation of active compound, 1 part by weight of active compound is mixed with the stated amounts of solvent and emulsifier, and the concentrate is diluted with emulsifier-containing water to the desired concentration.
Cotton leaves (Gossypium hirsutum) which are heavily infested by the cotton aphid (Aphis gossypii) are treated by being dipped into the preparation of active compound of the desired concentration.
After the desired period of time, the kill in % is determined. 100% means all aphids have been killed; 0% means that none of the aphids have been killed.

[3] = system: peach aphid (Myzus persicae); assay: Myzus test (cabbage leaves, dip); assay type: in vivo; conditions: 500 ppm, cabbage leaves dipped
Description: as §1, §2
Cabbage leaves (Brassica oleracea) which are heavily infested by the peach aphid (Myzus persicae) are treated by being dipped into the preparation of active compound of the desired concentration.
After the desired period of time, the kill in % is determined. 100% means that all aphids have been killed; 0% means that none of the aphids have been killed.

[4] = system: caterpillars of the armyworm (Spodoptera frugiperda); assay: Spodoptera frugiperda test (cabbage leaves, dip); assay type: in vivo; conditions: 168 h, after 7 d, cabbage leaves dipped, read-out: Kill rate in % after 7 d
Description: Spodoptera frugiperda Test
as §1
(§3) After the desired period of time, the kill in % is determined. 100% means that all caterpillars have been killed; 0% means that none of the caterpillars have been killed.

[5] = system: Heliothis armigera caterpillars; assay: Heliothis armigera test (soya bean shoots, dip); assay type: in vivo; conditions: 500 ppm, soya bean shoots dipped
Description: as §1, §2
Soya bean shoots (Glycine max) are treated by being dipped into the preparation of active compound of the desired concentration and are populated with Heliothis annigera caterpillars while the leaves are still moist.
as §3

[6] = system: caterpillars of the diamondback moth (Plutella xylostella); assay: Plutella test (cabbage leaves, dip); assay type: in vivo; conditions: 500 ppm, cabbage leaves dipped
Description: as §1, §2
Cabbage leaves (Brassica oleracea) are treated by being dipped into the preparation of active compound of the desired concentration and are populated with caterpillars of the diamondback moth (Plutella xylostella) while the leaves are still moist.
as §3

[7] = system: greenhouse red spider mite (Tetranychus urticae); assay: Tetranychus test (OP-resistant/dip treatment); assay type: in vivo; conditions: 168 h, 100 ppm, after 7 d, OP-resistant, bean plants dipped, read-out: Kill rate in % after 7 d
Description: Tetranychus Test (OP-Resistant/Dip Treatment)
as §1
After the desired period of time, the effect in % is determined. 100% means that all spider mites have been killed; 0% means that none of the spider mites have been killed.

[8] = system: larvae of the mustard beetle (Phaedon cochleariae); assay: Phaedon larvae test (cabbage leaves, dip); assay type: in vivo; conditions: 168 h, after 7 d, cabbage leaves dipped, read-out: Kill rate in % after 7 d
Description: as §1
After the desired period of time, the kill in % is determined. 100% means that all beetle larvae have been killed; 0% means that none of the beetle larvae have been killed.

[9] = reversed-phase HPLC column (C18); acidic range: 0.1% aqueous phosphoric acid/acetonitrile gradient, C18, 43° C.; read-out: logP a)
[10] = reversed-phase HPLC column (C18), pH 2.3, read-out: logP (pH 2.3)

Compound	chromatographic logP [1, 9]	Kill rate in % after 6 d [2]	Kill rate in % after 6 d [3]	pest or weed control at 500 ppm [4]	Kill rate in % after 7 d [5]	Kill rate in % after 7 d [6]	pest or weed control at 100 ppm [7]	chromatographic logP [1, 10]	pest or weed control at 500 ppm [8]
FC(F)=CCCSc1nccc(-n2nccn2)n1 [Example 26]	2.7	95%	99%	100%	–	–	–	–	–
FC(F)=CCCSc1nccc(-n2ccnn2)n1 [Example 25]	2.62	–	–	–	100%	100%	100%	–	–
FC(F)=CCCSc1nccc(-c2cnccn2)n1 [Example 14]	2.91	–	95%	–	–	–	100%	–	–
FC(F)=CCCSc1nccc(-c2nccc3ccccc23)n1 [Example 7]	3.67	98%	100%	–	–	100%	100%	–	–
Cc1c(-c2ccnc(SCCC=C(F)F)n2)sc2ccccc12 [Example 54]	5.25	–	–	100%	–	100%	100%	–	–
FC(F)=CCCSc1nccc(-n2cccn2)n1 [Example 1, 2-[(4,4-difluoro-3-butenyl)-sulfanyl]-4-(pyrazol-1-yl)-pyrimidine]	–	–	99%	–	100%	100%	100%	3.3	100%
FC(F)=CCCSc1nccc(-c2ccccn2)n1 [Example 2]	–	99%	100%	–	–	–	–	3.33	100%
FC(F)=CCCSc1nccc(-c2nccs2)n1 [Example 11]	3.33	–	95%	–	–	–	–	–	95%
COc1cccnc1-c1ccnc(SCCC=C(F)F)n1 [Example 37]	2.14	–	–	–	100%	100%	100%	–	–
COc1ccnc(-c2ccnc(SCCC=C(F)F)n2)c1 [Example 8]	2.41	99%	95%	–	–	–	–	–	–

From patent US20060106042A1, “Substituted heterocyclpyrmidines” (priority 2002, published 2006)
